Laboratory results: patent publication US11731986B2 (Sanford Burnham Prebys Medical Discovery Institute, priority 2017, dated 2023)

Molecular target: T1, human LMPTP-A (Homo sapiens, UniProt P24666)
T1 sequence (P24666 1-158): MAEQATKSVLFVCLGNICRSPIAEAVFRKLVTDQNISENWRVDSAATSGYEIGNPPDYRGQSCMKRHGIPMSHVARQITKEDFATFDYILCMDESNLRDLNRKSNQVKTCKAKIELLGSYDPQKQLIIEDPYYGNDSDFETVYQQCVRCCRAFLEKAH
Assay: Enzyme Assay of Inhibition of LMPTP-A (phosphatase assay, OMFP or pNPP substrate)
Type: biochemical
Settings: Bis-Tris pH 6.0, 37° C.
Method: Phosphatase assays were performed in buffer containing 50 mM Bis-Tris, pH 6.0, 1 mM DTT and 0.01% Triton X-100 at 37° C. For assays conducted with 3-O-methylfluorescein phosphate (OMFP) as substrate, fluorescence was monitored continuously at λex=485 and λem=525 nm. For assays conducted with para-nitrophenylphosphate (pNPP) as substrate, the reaction was stopped by addition of 2× reaction volume of 1 M NaOH, and absorbance was measured at 405 nm. IC50 values of compounds of Formula (I), (II), (III), or (IV) were determined from plots of inhibitor concentration versus percentage of enzyme activity. For inhibitor selectivity assays, each PTP was incubated with either 0.4 mM OMFP or 5 mM pNPP in the presence of 40 μM compound or DMSO. […] For the inhibitor reversibility assay, 50 nM human LMPTP-A was pre-incubated with 10 μM of compound of Formula (I), (II), (III), or (IV) or DMSO for 5 min. The enzyme was diluted 100× in phosphatase assay buffer containing 0.4 mM OMFP and fluorescence was measured at the indicated time points.

IC50 [nM]	SMILES
1000 to 20000	CN1CCC(Nc2cc(-c3ccc4c(c3)cc(C(=O)NCCCN3CCCCC3)n4C)nc3ccncc23)CC1 [1-Methyl-5-(4-((1-methylpiperidin-4-yl)amino)-1,6-naphthyridin-2-yl)-N-(3-(piperidin-1-yl)propyl)-1H-indole-2-carboxamide]
1000 to 20000	CC(CCN1CCCCC1)Nc1cc(-c2ccc3c(c2)cc(C(=O)NC2CCN(C)CC2)n3C)nc2ccncc12 (centres unmarked) [1-Methyl-N-(1-methylpiperidin-4-yl)-5-(4-(4-(piperidin-1-yl)butan-2-ylamino)-1,6-naphthyridin-2-yl)-1H-indole-2-carboxamide]
≤ 1000	CN1CCC(NC(=O)c2cc3cc(-c4cc(NC5CCN(C)CC5)c5cnccc5n4)ccc3n2C)CC1 [1-Methyl-N-(1-methylpiperidin-4-yl)-5-(4-((1-methylpiperidin-4-yl)amino)-1,6-naphthyridin-2-yl)-1H-indole-2-carboxamide]
≤ 1000	Cn1c(C(=O)NC2CCSCC2)cc2cc(-c3cc(NCCCN4CCCCC4)c4cnccc4n3)ccc21 [1-methyl-5-(4-(3-(piperidin-1-yl)propylamino)-1,6-naphthyridin-2-yl)-N-(tetrahydro-2H-thiopyran-4-yl)-1H-indole-2-carboxamide]
≤ 1000	Cn1c(C(=O)NC2CCNCC2)cc2cc(-c3cc(NCc4ccc(CN5CCCCC5)cc4)c4cnccc4n3)ccc21 [1-methyl-5-(4-(4-(piperidin-1-ylmethyl)benzylamino)-1,6-naphthyridin-2-yl)-N-(piperidin-4-yl)-1H-indole-2-carboxamide]
≤ 1000	Cn1c(C(=O)NC2CCNCC2)cc2cc(-c3cc(NCCCN4CCCCC4)c4cnccc4n3)ccc21 [1-methyl-5-(4-((3-(piperidin-1-yl)propyl)amino)-1,6-naphthyridin-2-yl)-N-(piperidin-4-yl)-1H-indole-2-carboxamide]
≤ 1000	Cn1c(C(=O)NC2CCOCC2)cc2cc(-c3cc(NCCCN4CCCCC4)c4cnccc4n3)ccc21 [1-methyl-5-(4-((3-(piperidin-1-yl)propyl)amino)-1,6-naphthyridin-2-yl)-N-(tetrahydro-2H-pyran-4-yl)-1H-indole-2-carboxamide]
1000 to 20000	CN1CCC(NC(=O)c2cc3cc(-c4cc(N(C)CCCN5CCCCC5)c5cnccc5n4)ccc3n2C)CC1 [1-methyl-5-(4-(methyl(3-(piperidin-1-yl)propyl)amino)-1,6-naphthyridin-2-yl)-N-(1-methylpiperidin-4-yl)-1H-indole-2-carboxamide]
1000 to 20000	CNc1cc(-c2ccc3c(c2)cc(C(=O)NC2CCN(C)CC2)n3C)nc2ccncc12 [1-methyl-5-(4-(methylamino)-1,6-naphthyridin-2-yl)-N-(1-methylpiperidin-4-yl)-1H-indole-2-carboxamide]
1000 to 20000	CN1CCC(NC(=O)c2cc3cc(-c4cc(OCCCN5CCCCC5)c5cnccc5n4)ccc3n2C)CC1 [1-methyl-N-(1-methylpiperidin-4-yl)-5-(4-(3-(piperidin-1-yl)propoxy)-1,6-naphthyridin-2-yl)-1H-indole-2-carboxamide]
≤ 1000	CN1CCC(NC(=O)c2cc3cc(-c4cc(NCc5ccc(CN6CCCCC6)cc5)c5cnccc5n4)ccc3n2C)CC1 [1-methyl-N-(1-methylpiperidin-4-yl)-5-(4-(4-(piperidin-1-ylmethyl)benzylamino)-1,6-naphthyridin-2-yl)-1H-indole-2-carboxamide]
≤ 1000	CN1CCC(NC(=O)c2cc3cc(-c4cc(NCCCN5CCCCC5)c5cnccc5n4)ccc3n2C)CC1 [1-methyl-N-(1-methylpiperidin-4-yl)-5-(4-((3-(piperidin-1-yl)propyl)amino)-1,6-naphthyridin-2-yl)-1H-indole-2-carboxamide]
≤ 1000	CN1CCC(NC(=O)c2cc3cc(-c4cc(Nc5ccc(CN6CCCC6)cc5)c5cnccc5n4)ccc3n2C)CC1 [1-methyl-N-(1-methylpiperidin-4-yl)-5-(4-((4-(pyrrolidin-1-ylmethyl)phenyl)amino)-1,6-naphthyridin-2-yl)-1H-indole-2-carboxamide]
≤ 1000	CCCNc1cc(-c2ccc3c(c2)cc(C(=O)NC2CCN(C)CC2)n3C)nc2ccncc12 [1-methyl-N-(1-methylpiperidin-4-yl)-5-(4-(propylamino)-1,6-naphthyridin-2-yl)-1H-indole-2-carboxamide]
≤ 1000	CN1CCN(CCCNC(=O)c2cc3cc(-c4cc(NCCCN5CCCCC5)c5cnccc5n4)ccc3n2C)CC1 [1-methyl-N-(3-(4-methylpiperazin-1-yl)propyl)-5-(4-((3-(piperidin-1-yl)propyl)amino)-1,6-naphthyridin-2-yl)-1H-indole-2-carboxamide]
≤ 1000	CN1CCC(CNC(=O)c2cc3cc(-c4cc(NCc5ccc(CN6CCCCC6)cc5)c5cnccc5n4)ccc3n2C)CC1 [1-methyl-N-((1-methylpiperidin-4-yl)methyl)-5-(4-(4-(piperidin-1-ylmethyl)benzylamino)-1,6-naphthyridin-2-yl)-1H-indole-2-carboxamide]

The next lines start with the compound.

SMILES	IC50 [nM]
NC1CCN(C(=O)CCc2ccc(-c3cc(NCCCN4CCCCC4)c4cnccc4n3)cc2)CC1	≤ 1000
O=C(NCCc1ccncc1)c1cc2ccc(-c3cc(NCCCN4CCCCC4)c4cnccc4n3)cc2[nH]1	≤ 1000
CCNC1CCN(C(=O)CCc2ccc(-c3cc(NCCCN4CCCCC4)c4cnccc4n3)cc2)CC1	≤ 1000
CN1CCCC(CCNC(=O)C#Cc2ccc(-c3cc(NCCCN4CCCCC4)c4cnccc4n3)cc2)CC1 (centres unmarked)	1000 to 20000
CCN(CC)C(=O)CNC(=O)CCc1ccc(-c2cc(NCCCN3CCCCC3)c3cnccc3n2)cc1	≤ 1000
CN1CCC(N/C(=N\O)c2ccc(-c3cc(NCCCN4CCCCC4)c4cnccc4n3)cc2)CC1	1000 to 20000
O=C(c1nc2cc(-c3cc(NCCCN4CCCCC4)c4cnccc4n3)ccc2[nH]1)N1CCNCC1	≤ 1000
CN1CCC(CNC(=O)c2cc3cc(-c4cc(NC5CCN(C)CC5)c5cnccc5n4)ccc3n2C)CC1 [1-Methyl-5-(4-((1-methylpiperidin-4-yl)amino)-1,6-naphthyridin-2-yl)-N-((1-methylpiperidin-4-yl)methyl)-1H-indole-2-carboxamide]	≤ 1000
Cn1c(C(N)=O)cc2nc(-c3cc(NCCCN4CCCCC4)c4cnccc4n3)ccc21 [1-methyl-5-(4-((3-(piperidin-1-yl)propyl)amino)-1,6-naphthyridin-2-yl)-1H-pyrrolo[3,2-b]pyridine-2-carboxamide]	1000 to 20000
Cn1c(C(=O)NCCc2ccncc2)cc2cc(-c3cc(NCCCN4CCCCC4)c4cnccc4n3)ccc21 [1-methyl-5-(4-((3-(piperidin-1-yl)propyl)amino)-1,6-naphthyridin-2-yl)-N-(2-(pyridin-4-yl)ethyl)-1H-indole-2-carboxamide]	≤ 1000
CNc1cc(-c2ccc3c(c2)cc(C(N)=O)n3C)nc2ccncc12 [1-methyl-5-(4-(methylamino)-1,6-naphthyridin-2-yl)-1H-indole-2-carboxamide]	1000 to 20000
O=C(COCc1ccc(-c2cc(NCCCN3CCCCC3)c3cnccc3n2)cc1)NCC1CCNCC1 [2-(4-(4-(3-(piperidin-1-yl)propylamino)-1,6-naphthyridin-2-yl)benzyloxy)-N-(piperidin-4-ylmethyl)acetamide]	≤ 1000
CCN1CCC(CNC(=O)CCOc2ccc(-c3cc(N(CC)CCCN4CCCCC4)c4cnccc4n3)cc2)CC1 [3-(4-(4-(ethyl(3-(piperidin-1-yl)propyl)amino)-1,6-naphthyridin-2-yl)phenoxy)-N-((1-ethylpiperidin-4-yl)methyl)propanamide]	≥ 20000
